16 molecules from US7312330B2, “Bicycloheteroarylamine compounds as ion channel ligands and uses thereof” (Renovis, Inc., priority 2003, dated 2007) can be followed below.

Where only a bound is given, the exact number is not on record here.

One assay has as its target T1, HsVR1 (Homo sapiens, UniProt Q8NER1).
T1 construct: expressed in transfected cells; host or cells: Xenopus oocytes injected with HsVR1 RNA
The experiment in a line: Two-electrode voltage clamp recording of capsaicin induced VR1 current in Xenopus oocytes. It counts as cell-based. The note with it: 250 nM capsaicin induced current; Xenopus oocytes injected with HsVR1 RNA; read-out: EPHYS IC50. The procedure: Xenopus ovaries obtained from NASCO were isolated by enzymatic dissociation using collagenase (Worthington, 2 mg/ml). Oocytes were then individually injected with HsVR1 RNA (0.5 μg/μl). Injected oocytes are stored in standard oocyte incubation solution, ND96, containing 96 mM NaCl, 2 mM KCl, 1 mM MgCl2, 0.3 mM CaCl2 and 50 µg/ml Gentamicin at 16° C. Capsaicin induced VR1 current is observed in oocytes 4-5 days after injection. Eight oocytes are placed in the recording chambers. Each oocyte is impaled by 2 glass electrodes having resistances of 0.5 to 1 MOhm when filled with a 3 M KCl solution. Electrode advancement and oocyte impalement are under software control (OpusXpress 1.1, Axon Instruments). VR1 expression in the oocytes is verified using 250 nM capsaicin. Test solution delivery to the oocytes during the experiment is also under software control. The solutions are prepared in 96 well plates and robotically pipetted into the oocyte recording chambers by an 8 channel pipetter. Oocytes are exposed to several 250 μl applications of 250 nM capsaicin until a stable current amplitude is obtained with each application. A set of 96 well plates containing the test solutions is prepared so that the sequence of solution application to the oocyte is as follows: 250 μls of 250 nM capsaicin is followed by a several minute wash with standard oocyte saline. 1 ml of the test compound is then added at a particular test concentration, followed immediately by 250 μl of the compound at the same concentration plus 250 nM capsaicin. The capsaicin induced VR1 current is recorded in the presence and absence of test compound for each concentration. The standard test concentrations range from 0.3 to 2000 nM. Quantitative measurement of VR1 current block was carried out by calculating the area under the curve described by the inward current. The resulting numbers for capsaicin induced currents in the presence of increasing compound concentration are normalized to the maximum current obtained. These points are then plotted on a logarithmic scale and fitted by a Hill function. The IC50 values for each compound tested were then calculated from the resulting Hill fit. All compounds that inhibited capsaicin induced current greater than 50% were considered positives.
(In two-electrode clamp one electrode senses voltage and the other passes current.)

Another assay addresses hVR1 (Homo sapiens, UniProt Q8NER1). The experiment in a line: Calcium imaging assay (Fura2) of VR1 antagonists, proton stimulation. It counts as cell-based. The note with it: HEK 293 cells expressing hVR1; for % Inhibition @ 1 μM: calcium ion influx induced by proton stimulation (pH 5.7); for IC50: calcium ion influx induced by proton stimulation. The text has this:
VR1 protein is a heat-gated cation channel that exchanges about 10 calcium ions for every sodium ion resulting in neuronal membrane depolarization and elevated intracellular calcium ion levels. Therefore the functional activity of compounds at the VR1 receptor may be determined by measuring changes in intracellular calcium levels in 293 cells expressing capsaicin-insensitive VR1 receptor variants. A dual wavelength ratiometric dye, Fura2, was used as an indicator of relative levels of calcium ions in a 96 well format using a bench top scanning fluorometer with integrated fluidics and temperature control (Flex Station, Molecular Devices).
A dual wavelength ratiometric dye, Fura2, was used as an indicator of relative levels of [Ca2+] in a 96 well format using a bench top scanning fluorometer with integrated fluidics and temperature control (Flex Station, Molecular Devices).
HEK 293 cells expressing hVR1 were grown on PDL coated 96-well black-walled plates, in the presence of a DMEM medium containing 5% Penstrep, 5% Glutamax, 200 ug/mL Hygromycin, 5 μg/mL Blasticide and 10% heat inactivated FBS. Prior to assay, the cells were loaded with 5 μg/mL Fura2 in normal saline solution at 37° C. for 40 minutes. Cells were then washed with normal saline to remove the dye.
The assay consists of two stages; a pre-treatment phase followed by a treatment phase. In the pretreatment phase, 50 μl of a compound solution was added to the cells. Immediately following, 50 μl of the test compound in the presence of agonist (a saline solution plus 10 mM citric acid bufferd to pH 5.7 with HCl) was added. Fura2 was excited at […] to indicate relative calcium concentration. Changes in wavelength measurements were made throughout the course of the experiment in 4 second intervals over a period of 3 minutes. The fluorescence ratio from the excitations at […] was recorded for analysis. Responses were measured as peak fluorescence ratio after compound-agonist addition minus baseline fluorescence ratio prior to treatment and were calculated for each concentration tested using the SoftMaxPro software. Data was expressed as percentage inhibition calculated as follows: […]
A dose response curve was then determined, from which the ID50 of each compound was calculated.

T1 sequence (Q8NER1 whole entry): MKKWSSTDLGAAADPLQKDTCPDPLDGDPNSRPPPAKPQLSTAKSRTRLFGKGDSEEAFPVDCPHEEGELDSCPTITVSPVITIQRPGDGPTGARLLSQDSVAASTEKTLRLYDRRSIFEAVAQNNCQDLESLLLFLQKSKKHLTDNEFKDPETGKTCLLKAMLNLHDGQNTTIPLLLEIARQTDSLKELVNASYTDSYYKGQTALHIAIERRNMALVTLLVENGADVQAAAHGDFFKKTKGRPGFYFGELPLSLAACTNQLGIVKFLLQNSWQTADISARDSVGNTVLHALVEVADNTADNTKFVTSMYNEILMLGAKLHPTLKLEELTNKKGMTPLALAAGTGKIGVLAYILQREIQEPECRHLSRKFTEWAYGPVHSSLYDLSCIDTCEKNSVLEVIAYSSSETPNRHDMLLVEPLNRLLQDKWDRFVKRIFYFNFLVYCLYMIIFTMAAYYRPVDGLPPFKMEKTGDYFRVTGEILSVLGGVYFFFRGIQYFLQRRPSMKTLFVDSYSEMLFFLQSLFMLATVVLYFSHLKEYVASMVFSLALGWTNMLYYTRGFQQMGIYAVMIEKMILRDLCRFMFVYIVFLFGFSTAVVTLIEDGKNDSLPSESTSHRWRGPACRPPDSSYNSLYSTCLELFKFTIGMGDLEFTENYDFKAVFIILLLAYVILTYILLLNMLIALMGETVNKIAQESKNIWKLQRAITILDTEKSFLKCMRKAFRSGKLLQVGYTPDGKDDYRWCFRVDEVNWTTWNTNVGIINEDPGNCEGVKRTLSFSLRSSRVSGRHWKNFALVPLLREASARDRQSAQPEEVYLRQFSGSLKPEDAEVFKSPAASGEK
hVR1, sequence (Q8NER1 whole entry): as above

Broadly, the IC50 is the concentration needed to halve the response being measured. `CC(C)(C)c1ccc(Nc2ncnc3c2CCN(c2ncccc2Cl)C3)cc1.Cl` [Example 3, N-(4-tert-Butylphenyl)-7-(3-chloropyridin-2-yl)-5,6,7,8-tetrahydropyrido[3,4-d]pyrimidin-4-amine hydrochloride]: the half-inhibitory concentration (IC50) at HsVR1 and at hVR1 was less than 100 nM throughout. Besides, at hVR1, the “% Inhibition @ 1 μM” value is “++++ (compound exhibited 76% or greater inhibition of calcium ion influx induced by proton stimulation)”.
On to `COCc1nc2c(c(Nc3ccc(C(C)(C)C)cc3)n1)CCN(c1ncccc1Cl)C2.Cl` [Example 5, N-(4-tert-Butylphenyl)-7-(3-chloropyridin-2-yl)-5,6,7,8-tetrahydro-2-(methoxymethyl)pyrido[3,4-d]pyrimidin-4-amine hydrochloride], for which the half-inhibitory concentration (IC50) on HsVR1 is less than 100 nM. In addition, at hVR1, the “% Inhibition @ 1 μM” value is given as “++++ (compound exhibited 76% or greater inhibition of calcium ion influx induced by proton stimulation)” and the IC50 was less than 100 nM.
Turning to `CC(C)(C)c1ccc(Nc2ncnc3c2CCN(c2ncccc2S(C)(=O)=O)C3)cc1` [Example 8, (4-tert-Butyl-phenyl)-[7-(3-methanesulfonyl-pyridin-2-yl)-5,6,7,8-tetrahydro-pyrido[3,4-d]pyrimidin-4-yl]-amine], the IC50 on HsVR1 was in the range of 101 to 500 nM. At hVR1, the “% Inhibition @ 1 μM” value is given as “++++ (compound exhibited 76% or greater inhibition of calcium ion influx induced by proton stimulation)” and the half-maximal inhibitory concentration (IC50) lay in the range of 101 to 500 nM.
Take `CCS(=O)(=O)c1cccnc1N1CCc2c(ncnc2Nc2ccc(C(F)(F)F)cc2)C1` [Example 10, 7-(3-(Ethylsulfonyl)pyridin-2-yl)-N-(4-(trifluoromethyl)phenyl)-5,6,7,8-tetrahydropyrido[3,4-d]pyrimidin-4-amine]: the IC50 on HsVR1 and at hVR1 was 101 to 500 nM throughout. In addition, the “% Inhibition @ 1 μM” value at hVR1 was “+++ (compound exhibited 51-75% inhibition of calcium ion influx induced by proton stimulation)”.
Turning to `FC(F)(F)c1ccc(Nc2ncnc3c2CCN(c2ncccc2C(F)(F)F)C3)cc1` [Example 12, (4-Trifluoromethyl-phenyl)-[7-(3-trifluoromethyl-pyridin-2-yl)-5,6,7,8-tetrahydro-pyrido[3,4-d]pyrimidin-4-yl]-amine], the IC50 is less than 100 nM at HsVR1 and 101 to 500 nM at hVR1. The “% Inhibition @ 1 μM” value at hVR1 is listed as “++++ (compound exhibited 76% or greater inhibition of calcium ion influx induced by proton stimulation)”.
The like results for `FC(F)(F)c1ccc(Nc2ncnc3c2CCN(c2ncccc2Cl)C3)cn1` [Example 20] were, in that order, 101 to 500 nM, 101 to 500 nM and “++++ (compound exhibited 76% or greater inhibition of calcium ion influx induced by proton stimulation)”.
For the molecule `O=S(=O)(c1ccc(Nc2ncnc3c2CCN(c2ncccc2Cl)C3)cc1)C(F)(F)F` [Example 22, 7-(3-Chloropyridin-2-yl)-N-(4-(trifluoromethylsulphonyl)phenyl)-5,6,7,8-tetrahydropyrido[3,4-d]pyrimidin-4-amine], the IC50 at HsVR1 was less than 100 nM. For the same molecule, at hVR1, the “% Inhibition @ 1 μM” value is reported as “++++ (compound exhibited 76% or greater inhibition of calcium ion influx induced by proton stimulation)” and the IC50 is less than 100 nM.
For `CS(=O)(=O)c1cccnc1N1CCc2c(ncnc2Nc2ccc(S(=O)(=O)C(F)(F)F)cc2)C1` [Example 23, 7-(3-Methanesulphonylpyridin-2-yl)-N-(4-(trifluoromethylsulphonyl)phenyl)-5,6,7,8-tetrahydropyrido[3,4-d]pyrimidin-4-amine], the IC50 at HsVR1 was 101 to 500 nM. Also, at hVR1, the “% Inhibition @ 1 μM” value was “++++ (compound exhibited 76% or greater inhibition of calcium ion influx induced by proton stimulation)” and the IC50 was 101 to 500 nM.
On to `COc1cccc(Nc2ncnc3c2CCN(c2cc(C(F)(F)F)ccn2)C3)c1` [Example 72, 7-(4-(Trifluoromethyl)pyridin-2-yl)-5,6,7,8-tetrahydro-N-(3-methoxyphenyl)pyrido[3,4-d]pyrimidin-4-amine], for which, on hVR1, the “% Inhibition @ 1 μM” value was “+ (compound exhibited 0-25% inhibition of calcium ion influx induced by proton stimulation)” and the IC50 is more than 1000 nM.
For the molecule `COc1cccc(Nc2ncnc3c2CCN(c2ccc(C(F)(F)F)cn2)C3)c1` [Example 73, 7-(5-(Trifluoromethyl)pyridin-2-yl)-5,6,7,8-tetrahydro-N-(3-methoxyphenyl)pyrido[3,4-d]pyrimidin-4-amine], on hVR1, the “% Inhibition @ 1 μM” value is “+ (compound exhibited 0-25% inhibition of calcium ion influx induced by proton stimulation)” and the IC50 is more than 1000 nM.
The like results for `Clc1cccnc1N1CCc2c(ncnc2Nc2ccc3c(c2)OCCO3)C1` [Example 74, 7-(3-Chloropyridin-2-yl)-5,6,7,8-tetrahydro-N-(2,3-dihydrobenzo[b][1,4]dioxin-6-yl)pyrido[3,4-d]pyrimidin-4-amine] were, in that order, “++ (compound exhibited 26-50% inhibition of calcium ion influx induced by proton stimulation)” and more than 1000 nM.
For the molecule `O=C(O)COc1nc2c(c(Nc3ccc(C(F)(F)F)cc3)n1)CCN(c1ncccc1Cl)C2` [Example 75, 2-(4-(4-(Trifluoromethyl)phenylamino)-7-(3-chloropyridin-2-yl)-5,6,7,8-tetrahydropyrido[3,4-d]pyrimidin-2-yloxy)acetic acid], at hVR1, the “% Inhibition @ 1 μM” value is “+ (compound exhibited 0-25% inhibition of calcium ion influx induced by proton stimulation)” and the IC50 was more than 1000 nM.
The like results for `O=S(=O)(c1ccc(Nc2ncnc3c2CCN(c2ncccc2C(F)(F)F)C3)cc1)C(F)(F)F` [Example 76, 7-(3-(trifluoromethyl)pyridin-2-yl)-5,6,7,8-tetrahydro-N-(4-(trifluoromethylsulfonyl)-phenyl)pyrido[3,4-d]pyrimidin-4-amine] were, in that order, “++++ (compound exhibited 76% or greater inhibition of calcium ion influx induced by proton stimulation)” and less than 100 nM.
For `FC(F)Oc1ccc(Nc2ncnc3c2CCN(c2ncccc2C(F)(F)F)C3)cc1` [Example 77, N-(4-(difluoromethoxy)phenyl)-7-(3-(trifluoromethyl)pyridin-2-yl)-5,6,7,8-tetrahydropyrido[3,4-d]pyrimidin-4-amine], in that order: “++++ (compound exhibited 76% or greater inhibition of calcium ion influx induced by proton stimulation)” and 101 to 500 nM.
The like results for `FC(F)(F)Oc1ccc(Nc2ncnc3c2CCN(c2ncccc2Cl)C3)cc1` [Example 78, 7-(3-Chloropyridin-2-yl)-5,6,7,8-tetrahydro-N-(4-(trifluoromethoxy)-phenyl)pyrido[3,4-d]pyrimidin-4-amine] were, in that order, “++++ (compound exhibited 76% or greater inhibition of calcium ion influx induced by proton stimulation)” and less than 100 nM.
Consider `FC(F)(F)Oc1ccc(Nc2ncnc3c2CCN(c2ncccc2C(F)(F)F)C3)cc1` [Example 79, 7-(3-(trifluoromethyl)pyridin-2-yl)-5,6,7,8-tetrahydro-N-(4-(trifluoromethoxy)-phenyl)pyrido[3,4-d]pyrimidin-4-amine], for which, on hVR1, the “% Inhibition @ 1 μM” value is “++++ (compound exhibited 76% or greater inhibition of calcium ion influx induced by proton stimulation)” and the IC50 is less than 100 nM.
